Data: US20090306227A1, “TABLET FOR REMOVING TONGUE COATING” (priority 2005, published 2009)

assay: Solubility of saccharides in water at 37° C.; assay type: physicochemical; settings: value in parentheses under the saccharide name
Procedure: The solubility can be determined by a method well-known to those skilled in the art. For example, solubility (% by weight) can be determined as follows. A solute is dissolved gradually in water of weight W1 at 37° C. When the largest amount of the solute is dissolved in the water, the weight of the solution is W2. The weight of the dissolved solute W3 (=W2−W1) is divided by the weight of the solution W2, and multiplied by 100 (i.e., converted to a percentage).

Compound | Used Saccharide (Solubility at 37° C. (weight %))
OC[C@@H](O)[C@@H](O)CO [Erythritol] | (44) weight %
O=C(CO)[C@@H](O)[C@H](O)[C@H](O)CO [Fructose] | (84) weight %
OC[C@@H](O)[C@@H](O[C@@H]1O[C@H](CO)[C@H](O)[C@H](O)[C@H]1O)[C@H](O)[C@@H](O)CO [Lactitol] | (70) weight %
OC[C@@H](O)[C@@H](O[C@H]1O[C@H](CO)[C@@H](O)[C@H](O)[C@H]1O)[C@H](O)[C@@H](O)CO [Maltitol] | (63) weight %
OC[C@@H](O)[C@@H](O)[C@H](O)[C@H](O)CO [Mannitol] | (23) weight %
OC[C@H]1O[C@H](OC[C@H]2OC(O)(CO)[C@@H](O)[C@@H]2O)[C@H](O)[C@@H](O)[C@@H]1O (stereo partly shown) [Palatinose] | (40) weight %
OC[C@@H](O)[C@@H](O)[C@H](O)[C@@H](O)CO [Sorbitol] | (74) weight %
OC[C@H]1O[C@@](CO)(O[C@H]2O[C@H](CO)[C@@H](O)[C@H](O)[C@H]2O)[C@@H](O)[C@@H]1O [Sucrose] | (68) weight %
OC[C@H]1O[C@H](O[C@H]2O[C@H](CO)[C@@H](O)[C@H](O)[C@H]2O)[C@H](O)[C@@H](O)[C@@H]1O [Trehalose] | (52) weight %
OC[C@@H](O)[C@H](O)[C@@H](O)CO [Xylitol] | (72) weight %
Palatinit | (37) weight %

same assay, conditions: water, unit from the definition, the table prints none

Compound | Solubility in water at 37° C. [% by weight]
OC[C@@H](O)[C@@H](O)CO [Erythritol] | 44
O=C(CO)[C@@H](O)[C@H](O)[C@H](O)CO [Fructose] | 84
OC[C@@H](O)[C@@H](O[C@@H]1O[C@H](CO)[C@H](O)[C@H](O)[C@H]1O)[C@H](O)[C@@H](O)CO [Lactitol] | 70
OC[C@@H](O)[C@@H](O[C@H]1O[C@H](CO)[C@@H](O)[C@H](O)[C@H]1O)[C@H](O)[C@@H](O)CO [Maltitol] | 63
OC[C@@H](O)[C@@H](O)[C@H](O)[C@H](O)CO [Mannitol] | 23
OC[C@H]1O[C@H](OC[C@H]2OC(O)(CO)[C@@H](O)[C@@H]2O)[C@H](O)[C@@H](O)[C@@H]1O (stereo partly shown) [Palatinose] | 40
OC[C@@H](O)[C@@H](O)[C@H](O)[C@@H](O)CO [Sorbitol] | 74
OC[C@H]1O[C@@](CO)(O[C@H]2O[C@H](CO)[C@@H](O)[C@H](O)[C@H]2O)[C@@H](O)[C@@H]1O [Sucrose] | 68
OC[C@H]1O[C@H](O[C@H]2O[C@H](CO)[C@@H](O)[C@H](O)[C@H]2O)[C@H](O)[C@@H](O)[C@@H]1O [Trehalose] | 52
OC[C@@H](O)[C@H](O)[C@@H](O)CO [Xylitol] | 72
Palatinit | 37
